Assay results reported in publication PMC10196118, “Evidence for broad cross-reactivity of the SARS-CoV-2 NSP12-directed CD4^+ T-cell response with pre-primed responses directed against common cold coronaviruses” (Frontiers in Immunology, 2023).

Test system: pre-cultured PBMCs (NSP12-specific T cells)
Test: IFN-γ ELISpot with single 15-mer peptides after 11–13 days in vitro peptide-pool T-cell expansion
Format: cell-based, human
Conditions: for peptide-specific response, donor HH-N12-18, post COVID-19 / peptide-specific response, donor HH-N12-34, post COVID-19 / peptide-specific response, donor HH-N12-35, post COVID-19 / peptide-specific response, donor HH-N12-36, post COVID-19 / peptide-specific response, donor HH-N12-37, post COVID-19 / peptide-specific T-cell response, donor HH-N12-18, post COVID-19 / peptide-specific T-cell response, donor HH-N12-34, post COVID-19 / peptide-specific T-cell response, donor HH-N12-35, post COVID-19 / peptide-specific T-cell response, donor HH-N12-36, post COVID-19 / peptide-specific T-cell response, donor HH-N12-37, post COVID-19: sample post COVID-19; for peptide-specific response, donor HH-N12-18, post COVID-19 / peptide-specific response, donor HH-N12-18, pre COVID-19 / peptide-specific response, donor HH-N12-34, post COVID-19 / peptide-specific response, donor HH-N12-34, pre COVID-19 / peptide-specific response, donor HH-N12-35, post COVID-19 / peptide-specific response, donor HH-N12-35, pre COVID-19 / peptide-specific response, donor HH-N12-36, post COVID-19 / peptide-specific response, donor HH-N12-36, pre COVID-19 / peptide-specific response, donor HH-N12-37, post COVID-19 / peptide-specific response, donor HH-N12-37, pre COVID-19: single NSP12 15-mer peptides; for peptide-specific response, donor HH-N12-18, pre COVID-19 / peptide-specific response, donor HH-N12-34, pre COVID-19 / peptide-specific response, donor HH-N12-35, pre COVID-19 / peptide-specific response, donor HH-N12-36, pre COVID-19 / peptide-specific response, donor HH-N12-37, pre COVID-19 / peptide-specific T-cell response, donor HH-N12-18, pre COVID-19 / peptide-specific T-cell response, donor HH-N12-34, pre COVID-19 / peptide-specific T-cell response, donor HH-N12-35, pre COVID-19 / peptide-specific T-cell response, donor HH-N12-36, pre COVID-19 / peptide-specific T-cell response, donor HH-N12-37, pre COVID-19: sample pre COVID-19; for peptide-specific T-cell response, donor HH-N12-18, post COVID-19 / peptide-specific T-cell response, donor HH-N12-18, pre COVID-19 / peptide-specific T-cell response, donor HH-N12-34, post COVID-19 / peptide-specific T-cell response, donor HH-N12-34, pre COVID-19 / peptide-specific T-cell response, donor HH-N12-35, post COVID-19 / peptide-specific T-cell response, donor HH-N12-35, pre COVID-19 / peptide-specific T-cell response, donor HH-N12-36, post COVID-19 / peptide-specific T-cell response, donor HH-N12-36, pre COVID-19 / peptide-specific T-cell response, donor HH-N12-37, post COVID-19 / peptide-specific T-cell response, donor HH-N12-37, pre COVID-19: single NSP12 15-mer peptide, 0 = no response

Row | Substance | peptide-specific response, donor HH-N12-18, post COVID-19 | peptide-specific response, donor HH-N12-18, pre COVID-19 | peptide-specific response, donor HH-N12-34, post COVID-19 | peptide-specific response, donor HH-N12-34, pre COVID-19 | peptide-specific response, donor HH-N12-35, post COVID-19 | peptide-specific response, donor HH-N12-35, pre COVID-19 | peptide-specific response, donor HH-N12-36, post COVID-19 | peptide-specific response, donor HH-N12-36, pre COVID-19 | peptide-specific response, donor HH-N12-37, post COVID-19 | peptide-specific response, donor HH-N12-37, pre COVID-19 | peptide-specific T-cell response, donor HH-N12-18, post COVID-19 | peptide-specific T-cell response, donor HH-N12-18, pre COVID-19 | peptide-specific T-cell response, donor HH-N12-34, post COVID-19 | peptide-specific T-cell response, donor HH-N12-34, pre COVID-19 | peptide-specific T-cell response, donor HH-N12-35, post COVID-19 | peptide-specific T-cell response, donor HH-N12-35, pre COVID-19 | peptide-specific T-cell response, donor HH-N12-36, post COVID-19 | peptide-specific T-cell response, donor HH-N12-36, pre COVID-19 | peptide-specific T-cell response, donor HH-N12-37, post COVID-19 | peptide-specific T-cell response, donor HH-N12-37, pre COVID-19
1 | MRNAGIVGVLTLDNQ [compound 40] | 0 | 0 | 0.032 | 0 | 0 | 0 | 0 | 0 | 0 | 0 |  |  |  |  |  |  |  |  |  | 
2 | QHEETIYNLLKDCPA [compound 17] | 0 | 0 | 0 | 0 | 0 | 0 | 0 | 0 | 0.021 | 0 |  |  |  |  |  |  |  |  |  | 
3 | RIMASLVLARKHTTC [compound 127] | 0 | 0.031 | 0 | 0 | 0 | 0.074 | 0 | 0 | 0 | 0.051 |  |  |  |  |  |  |  |  |  | 
4 | YFKYWDQTYHPNCVN [compound 58] | 0 | 0 | 0 | 0 | 0 | 0 | 0 | 0.041 | 0 | 0.11 |  |  |  |  |  |  |  |  |  | 
5 | LKYDFTEERLKLFDR [compound 55] | 0 | 0 | 0 | 0 | 0 | 0 | 0 | 0 | 0 | 0 |  |  |  |  |  |  |  |  |  | 
6 | DFIQTTPGSGVPVVD [compound 45] | 0 | 0 | 0 | 0.017 | 0 | 0 | 0 | 0 | 0 | 0 |  |  |  |  |  |  |  |  |  | 
7 | RLYECLYRNRDVDTD [compound 146] | 0 | 0 | 0.023 | 0 | 0 | 0 | 0 | 0 | 0 | 0.02 |  |  |  |  |  |  |  |  |  | 
8 | LLKTVQFCDAMRNAG [compound 38] | 0 | 0 | 0 | 0 | 0 | 0 | 0 | 0 | 0 | 0 |  |  |  |  |  |  |  |  |  | 
9 | TFSNYQHEETIYNLL [compound 16] | 0 | 0 | 0 | 0 | 0 | 0 | 0 | 0 | 0 | 0 |  |  |  |  |  |  |  |  |  | 
10 | MILSDDAVVCFNSTY [compound 152] |  |  |  |  |  |  |  |  |  |  | 0 | 0 | 0 | 0 | 0 | 0 | 0 | 0 | 0 | 0
11 | TSTDVVYRAFDIYND [compound 6] | 0 | 0 | 0 | 0 | 0 | 0 | 0 | 0 | 0 | 0 |  |  |  |  |  |  |  |  |  | 
12 | VYRAFDIYNDKVAGF [compound 7] | 0 | 0 | 0 | 0 | 0 | 0 | 0 | 0 | 0 | 0 |  |  |  |  |  |  |  |  |  | 
13 | Peptide 110: 15-mer peptide of SARS-CoV-2 NSP12, aa 546-560 | 0 | 0 | 0.023 | 0 | 0 | 0 | 0 | 0 | 0 | 0 |  |  |  |  |  |  |  |  |  | 
14 | HVDTDLTKPYIKWDL [compound 52] | 0 | 0 | 0 | 0 | 0 | 0 | 0 | 0 | 0.022 | 0 |  |  |  |  |  |  |  |  |  | 
15 | DAVVCFNSTYASQGL [compound 153] |  |  |  |  |  |  |  |  |  |  | 0 | 0 | 0 | 0 | 0 | 0 | 0 | 0 | 0 | 0
16 | LYRNRDVDTDFVNEF [compound 147] | 0 | 0 | 0 | 0 | 0 | 0 | 0 | 0 | 0 | 0 |  |  |  |  |  |  |  |  |  | 
17 | NFKSVLYYQNNVFMS [compound 157] |  |  |  |  |  |  |  |  |  |  | 0.3 | 0 | 0 | 0 | 0 | 0 | 0 | 0 | 0 | 0
